According to ChEMBL document CHEMBL1201862, “PubChem BioAssay data set” (2004):
Activity calls are given as the source filed them. Cut-off read from the data, not from the text of the source, for most assays here: actives have a measured EC50 and inactives only a lower limit.

Columns and labels:
[1] = luciferase reporter signal suppression in cells – H4 neuroglioma cells, luminescence, dose response (AID 1990); assay type: functional, cell-based
[2] = alpha-synuclein stem-loop luciferase translation blockers – H4 neuroglioma cells, luminescence, confirmation (AID 1988); assay type: functional, cell-based
BJ [3] = experiment: cells; assay type: functional, cell-based; conditions: Homo sapiens
BJ [4] = experiment: BJ-TERT-LT-ST fibroblast viability loss – cell-based, RAS-independent, luminescence, dose response (AID 1935); assay type: functional; conditions: Homo sapiens;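 note: BJ fibroblasts immortalized with TERT plus LT and ST oncogenes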
BJ [5] = experiment: BJ-TERT fibroblast viability loss – cell-based, RAS-independent, luminescence, dose response (AID 1933); assay type: functional; conditions: Homo sapiens
[6] = DRD fibroblast viability loss – cell-based, non-viral oncogenic, luminescence, dose response (AID 1934); assay type: functional; conditions: Homo sapiens
[7] = Luminescence Cell-Based Dose Response HTS to Identify Inhibitors of 5'UTR Stem-Loop Driven Prion Protein mRNA Translation in H4 Neuroglioblastoma Cells. [Related pubchem assays: 1827 (Project Summary), 1813 (Primary HTS)]; assay type: functional
[8] = molecular target: T1, Calpain-2 catalytic subunit (Sus scrofa, UniProt P43367); experiment: m-calpain protease blockers, concentration series – biochemical, fluorogenic peptide substrate, dose response (AID 1420); assay type: functional
T1 sequence (P43367 whole entry): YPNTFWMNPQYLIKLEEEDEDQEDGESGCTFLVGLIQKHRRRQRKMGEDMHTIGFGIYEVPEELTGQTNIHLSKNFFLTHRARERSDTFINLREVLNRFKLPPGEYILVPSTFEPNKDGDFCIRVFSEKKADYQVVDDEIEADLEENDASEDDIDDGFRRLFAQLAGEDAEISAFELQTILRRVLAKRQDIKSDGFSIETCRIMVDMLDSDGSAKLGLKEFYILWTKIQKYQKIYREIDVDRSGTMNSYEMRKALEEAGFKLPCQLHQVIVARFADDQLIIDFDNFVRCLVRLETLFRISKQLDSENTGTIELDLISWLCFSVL

Coagulation factor XII = molecular target: T2, Coagulation factor XII (Homo sapiens, UniProt P00748); assay type: functional;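 note: activated factor XIIa alpha cleaving a fluorogenic AMC peptide substrate; inhibitor potency from loss of enzyme activity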
T2 sequence (P00748 whole entry): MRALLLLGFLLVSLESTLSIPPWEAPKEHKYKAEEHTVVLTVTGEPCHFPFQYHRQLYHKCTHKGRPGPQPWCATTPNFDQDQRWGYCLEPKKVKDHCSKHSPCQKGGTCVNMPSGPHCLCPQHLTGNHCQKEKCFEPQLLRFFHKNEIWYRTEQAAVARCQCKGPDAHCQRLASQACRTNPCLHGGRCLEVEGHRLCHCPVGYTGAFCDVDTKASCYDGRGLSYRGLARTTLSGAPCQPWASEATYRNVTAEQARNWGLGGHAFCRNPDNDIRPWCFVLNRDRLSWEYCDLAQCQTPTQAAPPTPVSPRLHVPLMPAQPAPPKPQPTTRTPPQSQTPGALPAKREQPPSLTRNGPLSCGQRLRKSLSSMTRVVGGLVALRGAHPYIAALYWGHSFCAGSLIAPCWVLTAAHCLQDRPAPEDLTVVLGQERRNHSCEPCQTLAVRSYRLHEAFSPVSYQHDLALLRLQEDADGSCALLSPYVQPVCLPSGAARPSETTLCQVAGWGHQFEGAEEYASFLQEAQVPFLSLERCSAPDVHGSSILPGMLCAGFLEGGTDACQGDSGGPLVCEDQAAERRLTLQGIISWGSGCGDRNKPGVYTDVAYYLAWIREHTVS

[9] = molecular target: T3, Voltage-gated N-type calcium channel alpha-1B subunit/Amyloid beta A4 precursor protein-binding family A member 1 (Homo sapiens, UniProt Q00975+Q02410); assay type: protein assay
[10] = molecular target: T3, Voltage-gated N-type calcium channel alpha-1B subunit/Amyloid beta A4 precursor protein-binding family A member 1; assay type: protein assay; remark: listed apart in the source
Genome polyprotein = Genome polyprotein (dengue virus type 2, UniProt P29990); experiment: flavivirus cap methylation enzyme inhibition – biochemical, confirmation dose response, primary screen (AID 588689); assay type: functional
[11] = molecular target: T4, Replicative DNA helicase DnaB (Mycobacterium tuberculosis, UniProt P9WMR3); experiment: DnaB intein splicing inhibitors, dose response, biochemical, cell-free fluorescence (AID 449749); assay type: functional
T4 sequence (P9WMR3 whole entry): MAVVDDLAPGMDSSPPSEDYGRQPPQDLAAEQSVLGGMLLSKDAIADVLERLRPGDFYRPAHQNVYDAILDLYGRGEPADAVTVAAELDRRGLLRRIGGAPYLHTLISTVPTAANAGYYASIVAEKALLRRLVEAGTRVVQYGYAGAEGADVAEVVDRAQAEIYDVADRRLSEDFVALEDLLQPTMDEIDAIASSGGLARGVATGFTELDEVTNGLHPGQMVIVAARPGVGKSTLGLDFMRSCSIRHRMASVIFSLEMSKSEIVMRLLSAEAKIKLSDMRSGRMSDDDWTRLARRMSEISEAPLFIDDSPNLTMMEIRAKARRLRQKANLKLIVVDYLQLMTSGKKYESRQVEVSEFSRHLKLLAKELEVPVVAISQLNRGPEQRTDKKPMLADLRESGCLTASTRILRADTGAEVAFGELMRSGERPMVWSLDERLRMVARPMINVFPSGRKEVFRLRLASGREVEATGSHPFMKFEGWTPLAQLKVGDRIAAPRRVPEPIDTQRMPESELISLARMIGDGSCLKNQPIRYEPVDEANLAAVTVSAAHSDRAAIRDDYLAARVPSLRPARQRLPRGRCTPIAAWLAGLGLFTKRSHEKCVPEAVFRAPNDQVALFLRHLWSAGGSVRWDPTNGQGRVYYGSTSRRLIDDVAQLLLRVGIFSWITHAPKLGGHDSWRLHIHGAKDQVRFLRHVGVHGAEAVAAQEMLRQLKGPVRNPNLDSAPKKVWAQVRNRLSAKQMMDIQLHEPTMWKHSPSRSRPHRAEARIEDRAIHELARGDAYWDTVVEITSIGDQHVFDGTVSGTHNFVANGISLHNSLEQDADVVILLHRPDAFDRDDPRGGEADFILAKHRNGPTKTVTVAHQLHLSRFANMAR

Protein RecA = molecular target: T5, Protein RecA (Mycobacterium tuberculosis, UniProt P9WHJ3); experiment: Fluorescence Cell-Free Homogeneous Dose Retest to Identify Inhibitors of RecA-Intein Splicing Activity. [Related pubchem assays (depositor defined):AID2097, AID2223, AID489010, AID492950]; assay type: functional
T5 sequence (P9WHJ3 whole entry): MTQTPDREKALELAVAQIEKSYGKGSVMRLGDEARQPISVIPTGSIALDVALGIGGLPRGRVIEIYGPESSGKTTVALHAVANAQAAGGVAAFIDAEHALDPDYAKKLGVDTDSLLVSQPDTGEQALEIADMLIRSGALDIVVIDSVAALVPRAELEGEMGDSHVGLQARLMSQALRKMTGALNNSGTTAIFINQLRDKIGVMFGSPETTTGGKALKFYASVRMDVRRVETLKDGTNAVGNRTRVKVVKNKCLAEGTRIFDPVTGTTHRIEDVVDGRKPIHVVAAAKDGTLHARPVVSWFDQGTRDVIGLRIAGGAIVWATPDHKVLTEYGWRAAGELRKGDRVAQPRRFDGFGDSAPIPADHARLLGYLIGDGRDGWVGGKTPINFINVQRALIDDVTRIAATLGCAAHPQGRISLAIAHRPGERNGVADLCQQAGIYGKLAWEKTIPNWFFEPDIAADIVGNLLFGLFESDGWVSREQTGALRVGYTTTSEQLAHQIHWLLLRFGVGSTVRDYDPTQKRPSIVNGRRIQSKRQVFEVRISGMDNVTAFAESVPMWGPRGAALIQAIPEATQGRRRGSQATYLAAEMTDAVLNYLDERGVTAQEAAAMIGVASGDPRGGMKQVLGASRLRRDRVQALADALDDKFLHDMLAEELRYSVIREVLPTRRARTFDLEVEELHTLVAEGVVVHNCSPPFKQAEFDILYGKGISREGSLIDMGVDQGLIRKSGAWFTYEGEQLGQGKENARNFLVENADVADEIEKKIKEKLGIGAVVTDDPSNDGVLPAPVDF

[12] = molecular target: T6, Heat shock factor protein 1 (Mus musculus, UniProt P38532); experiment: decrease of HSF1-responsive luciferase luminescence – cell-based, NIH3T3, dose retest, confirmation (AID 2382); assay type: functional;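 note: NIH3T3 fibroblasts with HSF1-driven luciferase reporter stressed by proteasome inhibitor MG132; luminescence from HSF1-driven luciferase expression after 8 hours of MG132 stress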
T6 sequence (P38532 whole entry): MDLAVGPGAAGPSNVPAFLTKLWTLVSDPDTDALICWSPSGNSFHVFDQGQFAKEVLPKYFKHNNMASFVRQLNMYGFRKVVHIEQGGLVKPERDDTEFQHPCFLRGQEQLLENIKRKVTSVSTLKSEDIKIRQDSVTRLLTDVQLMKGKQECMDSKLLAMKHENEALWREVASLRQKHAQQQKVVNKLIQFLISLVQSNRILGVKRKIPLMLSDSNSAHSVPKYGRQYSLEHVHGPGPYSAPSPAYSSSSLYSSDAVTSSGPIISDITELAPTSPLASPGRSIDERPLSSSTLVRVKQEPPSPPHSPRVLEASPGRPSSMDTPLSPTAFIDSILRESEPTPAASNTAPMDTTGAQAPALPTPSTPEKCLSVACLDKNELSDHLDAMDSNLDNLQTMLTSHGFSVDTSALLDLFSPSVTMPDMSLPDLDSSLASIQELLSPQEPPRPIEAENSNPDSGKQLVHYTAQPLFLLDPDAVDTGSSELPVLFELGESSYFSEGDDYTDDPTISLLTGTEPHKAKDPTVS

T3 sequence (Q00975 whole entry): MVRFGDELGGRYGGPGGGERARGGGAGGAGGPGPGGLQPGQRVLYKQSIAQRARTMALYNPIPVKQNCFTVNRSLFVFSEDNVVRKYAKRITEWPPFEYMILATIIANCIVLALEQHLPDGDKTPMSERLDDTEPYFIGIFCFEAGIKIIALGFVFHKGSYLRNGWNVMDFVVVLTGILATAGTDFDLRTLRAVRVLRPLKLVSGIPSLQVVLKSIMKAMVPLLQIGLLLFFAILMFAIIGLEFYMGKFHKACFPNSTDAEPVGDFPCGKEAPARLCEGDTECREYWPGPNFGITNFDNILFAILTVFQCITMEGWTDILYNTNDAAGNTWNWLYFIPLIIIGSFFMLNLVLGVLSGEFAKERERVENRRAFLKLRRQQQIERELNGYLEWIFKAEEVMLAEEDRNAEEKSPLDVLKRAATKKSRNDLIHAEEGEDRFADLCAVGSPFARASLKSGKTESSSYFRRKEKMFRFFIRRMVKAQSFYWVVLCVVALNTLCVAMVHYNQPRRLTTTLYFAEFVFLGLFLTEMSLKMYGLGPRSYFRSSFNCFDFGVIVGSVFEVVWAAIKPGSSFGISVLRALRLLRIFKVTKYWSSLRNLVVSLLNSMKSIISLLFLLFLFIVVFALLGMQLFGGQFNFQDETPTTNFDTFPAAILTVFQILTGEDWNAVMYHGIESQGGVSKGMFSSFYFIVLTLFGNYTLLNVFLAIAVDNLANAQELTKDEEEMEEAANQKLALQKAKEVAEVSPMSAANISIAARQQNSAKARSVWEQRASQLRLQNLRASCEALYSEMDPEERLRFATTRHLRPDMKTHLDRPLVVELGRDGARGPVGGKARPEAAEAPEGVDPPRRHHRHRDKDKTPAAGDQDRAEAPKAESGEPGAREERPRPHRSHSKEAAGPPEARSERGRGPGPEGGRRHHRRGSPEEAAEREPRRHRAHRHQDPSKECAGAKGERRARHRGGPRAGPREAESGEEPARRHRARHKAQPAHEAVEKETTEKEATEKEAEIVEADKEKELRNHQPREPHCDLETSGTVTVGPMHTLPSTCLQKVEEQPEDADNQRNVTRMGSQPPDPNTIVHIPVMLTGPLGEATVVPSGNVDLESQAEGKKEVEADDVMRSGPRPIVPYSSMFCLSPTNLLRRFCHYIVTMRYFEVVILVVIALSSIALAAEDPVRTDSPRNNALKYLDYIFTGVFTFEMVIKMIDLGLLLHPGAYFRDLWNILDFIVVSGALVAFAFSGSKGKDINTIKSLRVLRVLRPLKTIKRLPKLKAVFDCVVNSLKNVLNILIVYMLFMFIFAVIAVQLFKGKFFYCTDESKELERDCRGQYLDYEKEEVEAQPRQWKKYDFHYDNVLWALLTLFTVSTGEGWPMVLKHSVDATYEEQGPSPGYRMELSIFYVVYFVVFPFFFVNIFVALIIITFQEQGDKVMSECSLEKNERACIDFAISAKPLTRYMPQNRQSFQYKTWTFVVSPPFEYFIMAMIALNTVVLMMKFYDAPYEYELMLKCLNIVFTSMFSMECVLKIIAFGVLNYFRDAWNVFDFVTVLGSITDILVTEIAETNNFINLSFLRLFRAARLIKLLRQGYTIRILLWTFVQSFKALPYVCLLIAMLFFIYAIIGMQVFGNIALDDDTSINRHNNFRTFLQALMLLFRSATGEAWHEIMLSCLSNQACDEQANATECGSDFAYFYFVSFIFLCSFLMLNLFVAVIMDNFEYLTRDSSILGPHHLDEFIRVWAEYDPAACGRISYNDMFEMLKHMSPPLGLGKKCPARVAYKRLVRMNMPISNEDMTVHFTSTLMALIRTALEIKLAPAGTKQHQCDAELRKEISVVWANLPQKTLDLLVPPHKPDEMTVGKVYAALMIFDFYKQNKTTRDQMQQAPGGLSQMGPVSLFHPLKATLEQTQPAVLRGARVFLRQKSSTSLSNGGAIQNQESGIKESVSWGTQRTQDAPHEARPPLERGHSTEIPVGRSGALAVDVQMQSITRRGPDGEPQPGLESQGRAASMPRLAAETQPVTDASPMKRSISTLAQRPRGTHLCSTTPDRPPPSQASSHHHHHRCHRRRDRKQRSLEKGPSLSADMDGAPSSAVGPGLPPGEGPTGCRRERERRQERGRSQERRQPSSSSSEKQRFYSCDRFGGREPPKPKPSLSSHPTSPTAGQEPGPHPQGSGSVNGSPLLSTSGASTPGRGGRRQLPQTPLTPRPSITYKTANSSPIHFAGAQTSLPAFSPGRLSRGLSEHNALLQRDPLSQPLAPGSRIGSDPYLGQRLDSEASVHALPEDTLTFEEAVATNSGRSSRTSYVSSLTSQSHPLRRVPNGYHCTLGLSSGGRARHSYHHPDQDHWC
T3 sequence (Q02410 whole entry): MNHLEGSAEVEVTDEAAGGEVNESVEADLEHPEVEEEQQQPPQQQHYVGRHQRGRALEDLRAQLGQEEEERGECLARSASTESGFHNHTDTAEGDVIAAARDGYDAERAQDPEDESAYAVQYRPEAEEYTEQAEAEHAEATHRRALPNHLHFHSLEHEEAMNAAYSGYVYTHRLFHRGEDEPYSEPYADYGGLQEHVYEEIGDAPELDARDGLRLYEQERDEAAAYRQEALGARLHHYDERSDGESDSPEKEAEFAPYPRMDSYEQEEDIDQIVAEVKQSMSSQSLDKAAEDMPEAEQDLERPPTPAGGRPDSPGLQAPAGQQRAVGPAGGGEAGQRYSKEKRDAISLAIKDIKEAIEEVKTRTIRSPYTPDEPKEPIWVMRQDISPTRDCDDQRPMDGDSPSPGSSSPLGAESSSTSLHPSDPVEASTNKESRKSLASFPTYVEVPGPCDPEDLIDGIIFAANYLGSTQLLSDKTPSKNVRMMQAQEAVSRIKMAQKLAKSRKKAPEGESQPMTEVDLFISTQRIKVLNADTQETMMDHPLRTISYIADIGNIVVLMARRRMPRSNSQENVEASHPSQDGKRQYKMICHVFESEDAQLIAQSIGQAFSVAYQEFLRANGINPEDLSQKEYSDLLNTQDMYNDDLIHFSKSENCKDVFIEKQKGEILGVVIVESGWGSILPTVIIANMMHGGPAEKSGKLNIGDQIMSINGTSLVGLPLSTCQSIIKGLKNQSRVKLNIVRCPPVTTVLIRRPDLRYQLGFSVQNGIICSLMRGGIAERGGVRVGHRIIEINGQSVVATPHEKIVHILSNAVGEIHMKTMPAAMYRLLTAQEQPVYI
Genome polyprotein, sequence (P29990 2492-3391 limits assumed): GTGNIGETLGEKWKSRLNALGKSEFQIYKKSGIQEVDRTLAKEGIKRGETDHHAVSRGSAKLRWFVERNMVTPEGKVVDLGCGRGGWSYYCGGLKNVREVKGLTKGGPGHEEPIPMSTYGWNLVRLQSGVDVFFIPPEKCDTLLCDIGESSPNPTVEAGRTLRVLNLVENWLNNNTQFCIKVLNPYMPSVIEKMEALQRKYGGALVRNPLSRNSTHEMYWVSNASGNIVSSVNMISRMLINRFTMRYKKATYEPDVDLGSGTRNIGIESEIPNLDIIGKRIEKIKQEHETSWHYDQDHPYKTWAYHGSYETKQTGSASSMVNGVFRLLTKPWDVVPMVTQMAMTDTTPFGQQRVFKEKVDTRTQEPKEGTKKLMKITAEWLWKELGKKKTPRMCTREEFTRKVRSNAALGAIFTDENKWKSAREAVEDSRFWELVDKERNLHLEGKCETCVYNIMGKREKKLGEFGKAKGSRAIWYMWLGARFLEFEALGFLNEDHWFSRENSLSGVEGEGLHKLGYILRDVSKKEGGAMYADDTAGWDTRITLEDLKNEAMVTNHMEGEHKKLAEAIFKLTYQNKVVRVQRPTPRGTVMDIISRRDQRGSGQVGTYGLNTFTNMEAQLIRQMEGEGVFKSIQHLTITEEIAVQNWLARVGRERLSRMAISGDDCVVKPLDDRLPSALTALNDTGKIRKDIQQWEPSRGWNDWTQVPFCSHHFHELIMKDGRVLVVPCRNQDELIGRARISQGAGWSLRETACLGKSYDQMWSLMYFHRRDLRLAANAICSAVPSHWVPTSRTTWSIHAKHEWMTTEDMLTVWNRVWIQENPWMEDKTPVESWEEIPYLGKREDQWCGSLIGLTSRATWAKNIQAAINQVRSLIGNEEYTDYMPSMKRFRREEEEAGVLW

COCCCNc1nnc(Cc2ccc(Cl)cc2)c(O)n1
EC50 [1]: 9.25 µM (inconclusive)
EC50 [2]: 6.13 µM (active)
EC50 (BJ [3]): 24.2 µM (active)
EC50 (BJ [4]): 0.913 µM (active)
EC50 (BJ [5]): 1.47 µM (active)
EC50 [6]: 1.04 µM (active)
EC50 [7]: 9.52 µM (active)

COc1ccc(S(=O)(=O)N2CCCCC2)cc1NC(=O)CN(C)C1CCCCC1
IC50 [8]: 10.8 µM (not active)
IC50 (Coagulation factor XII): > 50 µM (inactive)

Cn1c(NCc2ccco2)nc2c1c(=O)n(Cc1ccc(Br)cc1)c(=O)n2C
IC50 [8]: 2.84 µM (not active)

O=C(CCN1C(=O)/C(=C/c2ccccc2F)SC1=S)NC1C=CS(=O)(=O)C1 (configuration not stated)
IC50 [9]: 2.87 µM (active)
IC50 [10]: > 50 µM (inactive)

N#CC1=C(N)Oc2cc(N)ccc2C1c1cc(Br)cs1 (configuration not stated)
EC50 (BJ [3]): 94.1 µM (inconclusive)
EC50 (BJ [4]): 20.6 µM (inconclusive)
EC50 (BJ [5]): 11.4 µM (active)
EC50 [6]: 15.5 µM (inconclusive)

CNC(=S)N=C(Nc1ccc(C)cc1)c1ccccc1
IC50 [9]: 2.38 µM (active)
IC50 [10]: > 50 µM (inactive)

Cc1ccc(SCc2n[nH]c3c2C(c2ccc(C)o2)C(C#N)=C(N)O3)cc1 (configuration not stated)
IC50 (Genome polyprotein): > 100 µM (active)
AC50 [11]: 61.4 µM (active)
EC50 (Protein RecA): 7.85 µM (active)
EC50 [12]: > 195 µM (not active)
